Data taken from BindingDB's records for patent US20240101552 (Shanghai Pharmaceuticals Holding Co., 2024).
One block for each compound: values may come before it.

Target: T1, LanC-like protein 2 (Homo sapiens, UniProt Q9NS86)
T1 sequence (Q9NS86 whole entry): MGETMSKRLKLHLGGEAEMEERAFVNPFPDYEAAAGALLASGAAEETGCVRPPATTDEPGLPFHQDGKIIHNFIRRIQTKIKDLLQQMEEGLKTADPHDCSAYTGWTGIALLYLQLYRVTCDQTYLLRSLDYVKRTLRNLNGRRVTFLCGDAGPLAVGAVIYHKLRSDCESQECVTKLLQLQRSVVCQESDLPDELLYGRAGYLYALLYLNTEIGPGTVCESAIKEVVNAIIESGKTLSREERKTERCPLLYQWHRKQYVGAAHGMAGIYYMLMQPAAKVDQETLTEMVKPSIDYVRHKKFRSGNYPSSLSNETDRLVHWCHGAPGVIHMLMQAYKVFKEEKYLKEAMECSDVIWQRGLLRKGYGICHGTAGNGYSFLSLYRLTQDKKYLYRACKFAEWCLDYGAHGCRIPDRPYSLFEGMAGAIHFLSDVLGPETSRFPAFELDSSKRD
Test: Receptor Binding Assay
Protocol: 1. […] The kinetic parameters of small molecules BT-11 and L-1 to 60 (analytes) binding to LANCL2 (ligand) were determined using BIACORE S200. Data were generated in triplicate in a dose-dependent manner (5-8 titration points) and analyzed to determine binding models (Langmuir, conformational shifts, etc.), real-time association and dissociation constants, and equilibrium dissociation constants. SPR technology allows the validation of specific LANCL2-phytochemical interactions as well as an increased insight into the gold standard of binding mechanisms and rates. Experiments were performed on carboxymethyl polydextrose (CM5) sensor chips by amine-coupled covalent attachment of LANCL2. Data were analyzed with BIACORE S200T200 evaluation software (version 1), so as to determine affinity binding constants (KD) using a 1:1 binding model.

Structure (SMILES): O=C(Nc1ccccc1NC(=O)c1cccc(-c2cn3ccccc3n2)c1)c1cccc(-c2cn3ccccc3n2)c1 [US20240101552, Compound L-1]
Kd: 4.46 µM

Structure (SMILES): O=C(c1cccc(Nc2ccccc2)n1)N1CCC2(CCN(C(=O)c3cccc(-c4nc5ccccc5[nH]4)n3)CC2)C1 [US20240101552, Compound L-61]
Kd: 23.2 µM

Structure (SMILES): O=C(N[C@H]1[C@@H]2CN(C(=O)c3cccnc3Oc3ccccc3)C[C@@H]21)c1cccc(-c2cn3ccccc3n2)c1 [US20240101552, Compound L-105]
Kd: 17.5 µM

Structure (SMILES): O=C(N[C@H]1[C@@H]2CN(C(=O)c3cccc(Nc4ccccc4)n3)C[C@@H]21)c1ccnc(Nc2ccccc2)n1 [US20240101552, Compound L-103]
Kd: 24.1 µM

Structure (SMILES): O=C(c1cccc(-c2nc3ccccc3[nH]2)n1)N1CC2CN(C(=O)c3cccc(-c4nc5ccccc5[nH]4)n3)CC2C1 [US20240101552, Compound L-10]
Kd: 18.4 µM

Structure (SMILES): O=C(N[C@H]1[C@@H]2CN(C(=O)c3n[nH]c4ccccc34)C[C@@H]21)c1cccc(-c2cn3ccccc3n2)c1 [US20240101552, Compound L-106]
Kd: 4.32 µM

Structure (SMILES): O=C(c1ccnc(Nc2ccccn2)c1)N1CC2CN(C(=O)c3cccc(-c4nc5ccccc5[nH]4)n3)CC2C1 [US20240101552, Compound L-53]
Kd: 36 µM

Structure (SMILES): O=C(c1cccc(-c2nc3ccccc3[nH]2)n1)N1CC2CN(C(=O)c3ccnc(Nc4ccccn4)n3)CC2C1 [US20240101552, Compound L-26]
Kd: 65.8 µM

Structure (SMILES): O=C(NC1C2CN(C(=O)c3cccc(-c4nc5ccccc5[nH]4)n3)CC21)c1ccnc(Nc2ccccn2)n1 [US20240101552, Compound L-25]
Kd: 2.01 µM

Structure (SMILES): O=C(c1cccc(Nc2ccccc2)n1)N1CC2CN(C(=O)c3ccnc(Nc4ccccc4)n3)CC2C1 [US20240101552, Compound L-102]
Kd: 29.5 µM

Structure (SMILES): O=C(c1cccc(-c2nc3ccccc3[nH]2)n1)N1CC2CN(C(=O)c3ccnc(Nc4ccccc4)n3)CC2C1 [US20240101552, Compound L-24]
Kd: 57.3 µM

Structure (SMILES): O=C(NC1CCN(C(=O)c2cccc(-c3nc4ccccc4[nH]3)n2)CC1)c1cccc(-c2cn3ccccc3n2)c1 [US20240101552, Compound L-5]
Kd: 17 µM

Structure (SMILES): O=C(c1cccc(-c2cn3ccccc3n2)c1)N1CC2CC1CN2C(=O)c1cccc(-c2nc3ccccc3[nH]2)n1 [US20240101552, Compound L-4]
Kd: 40 µM

Structure (SMILES): O=C(c1cccc(-c2nc3ccccc3[nH]2)n1)N1CC2CN(C(=O)c3ccnc(N4CCOCC4)n3)CC2C1 [US20240101552, Compound L-16]
Kd: 84.9 µM

Structure (SMILES): O=C(c1cccc(-c2cn3ccccc3n2)c1)N1CC2CN(C(=O)c3ccnc(Nc4ccccc4)n3)CC2C1 [US20240101552, Compound L-43]
Kd: 49.2 µM

Structure (SMILES): O=C(c1cccc([N+](=O)[O-])c1)N1CC2CN(C(=O)c3cccc(-c4nc5ccccc5[nH]4)n3)CC2C1 [US20240101552, Compound L-41]
Kd: 27.6 µM

Continued, values first:

Kd: 16.8 µM
Structure (SMILES): O=C(c1cccc(-c2cn3ccccc3n2)c1)N1CC2CN(C(=O)c3cccc(-c4nc5ccccc5[nH]4)n3)CC2C1 [US20240101552, Compound L-55]

Kd: 6.92 µM
Structure (SMILES): O=C(c1cccc(-c2cn3ccccc3n2)c1)N1CCC2(CC1)CCN(C(=O)c1cccc(-c3nc4ccccc4[nH]3)n1)CC2 [US20240101552, Compound L-3]

Kd: 12.2 µM
Structure (SMILES): O=C(c1ccnc(Nc2ccccc2)n1)N1CCC2(CC1)CCN(C(=O)c1ccnc(Nc3ccccn3)n1)CC2 [US20240101552, Compound L-98]

Kd: 13.3 µM
Structure (SMILES): O=C(NC1CCN(C(=O)c2cccc(-c3nc4ccccc4[nH]3)n2)CC1)c1cccc(Nc2ccccc2)n1 [US20240101552, Compound L-47]

Kd: 9.09 µM
Structure (SMILES): O=C(NC1CCN(C(=O)c2cccc(-c3nc4ccccc4[nH]3)n2)CC1)c1cccc([N+](=O)[O-])c1 [US20240101552, Compound L-38]

Kd: 8.31 µM
Structure (SMILES): O=C(c1cccc(Nc2ccccc2)n1)N1CCC2(CC1)CCN(C(=O)c1cccc(-c3nc4ccccc4[nH]3)n1)CC2 [US20240101552, Compound L-45]

Kd: 6.33 µM
Structure (SMILES): O=C(C1CCCN1C(=O)c1cccc(-c2cn3ccccc3n2)c1)N1CC2CN(c3ccc([N+](=O)[O-])cc3)CC2C1 [US20240101552, Compound L-39]

Kd: 2.3 µM
Structure (SMILES): O=C(c1cccc(-c2nc3ccccc3[nH]2)n1)N1CCC2(CC1)CCN(C(=O)c1ccnc(N3CCOCC3)n1)CC2 [US20240101552, Compound L-15]

Kd: 3.21 µM
Structure (SMILES): O=C(c1cccc([N+](=O)[O-])c1)N1CCC2(CC1)CCN(C(=O)c1cccc(-c3nc4ccccc4[nH]3)n1)CC2 [US20240101552, Compound L-40]

Kd: 5.41 µM
Structure (SMILES): O=C(NC1CCN(C(=O)c2ccnc(Nc3ccccc3)n2)CC1)c1ccnc(Nc2ccccn2)n1 [US20240101552, Compound L-99]

Kd: 10.8 µM
Structure (SMILES): O=C(NC1CCN(C(=O)c2cccc(Nc3ccccc3)n2)CC1)c1cccc(Nc2ccccc2)n1 [US20240101552, Compound L-114]

Kd: 8.73 µM
Structure (SMILES): O=C(Nc1cccc(-c2cn3ccccc3n2)c1)N1CCN(C(=O)c2cccc(-c3nc4ccccc4[nH]3)n2)CC1 [US20240101552, Compound L-118]

Kd: 0.719 µM
Structure (SMILES): O=C(NC1C2CN(C(=O)c3cccc(-c4cn5ccccc5n4)c3)CC21)c1cccc(-c2nc3ccccc3[nH]2)n1 [US20240101552, Compound L-2]

Kd: 2.53 µM
Structure (SMILES): O=C(N[C@H]1[C@@H]2CN(C(=O)c3cccc(-c4cn5ccccc5n4)c3)C[C@@H]21)c1cccc(-c2cn3ccccc3n2)c1 [US20240101552, Compound L-89]

Kd: 9.5 µM
Structure (SMILES): O=C(N[C@H]1[C@@H]2CN(C(=O)c3cccc(Nc4ccccc4)n3)C[C@@H]21)c1cccc(-c2cn3ccccc3n2)c1 [US20240101552, Compound L-90]
